Measured values reported in patent US20190151283A1, “NON-STEROIDAL SELECTIVE GLUCOCORTICOID RECEPTOR AGONISTIC MODULATORS (SEGRAMs) AND USES THEREOF” (ASSOCIATION POUR LA RECHERCHE À L'IGBMC (ARI), priority 2017, published 2019).

Tests used:
Format in all cases: in vivo, mouse
B6 male mice [1] = test: Bone formation after three-month treatment (micro-CT, WNT16 transcripts); conditions: s.c. 1 mg/kg daily, three months
Experimental: (§1) B6 male mice (8-week-old) were daily subjected for three months to either a subcutaneous injection of vehicle (NaCl 0.9%), Dex, CpdX, CpdX(eA), CpdX(eB), CpdX-D3, CpdX-D3(eA) or CpdX-D3(eB) (1 mg/kg body weight, diluted in NaCl 0.9%).
From each animal included in the experiments, one femur and the ipsilateral tibia were dissected and preserved in 70% ethanol for further bone microstructure analysis by micro-CT. The FX Quantum micro-CT scanner (Perkin Elmer) was used to perform measurements at the distal femur and midshaft tibia. All scans were performed with an isotropic voxel size of 10 μm, 160 μA tube current and 90 kV tube voltage.
Morphological 3D measurements were performed using the CTAn software (Bruker). Cortical bone parameters, which were measured in the tibia midshaft, included measures of the bone volume fraction as compared to the total volume, cortical thickness, total area, bone area and marrow area. The region of interest was selected from below the distal tibial crest and continued for 20 slices toward the proximal end of the tibia. Trabecular bone parameters were measured in the distal metaphysis of the femurs and included bone volume fraction, trabecular thickness, trabecular number and trabecular spacing. The region of interest was selected from below the distal growth plate where the epiphyseal cap structure completely disappeared and continued for 100 slices toward the proximal end of the femur.
The statistical significance as compared to vehicle treatment was calculated through one-way ANOVA test followed by Dunn's multiple comparison test, *p<0.05; **p<0.01; ***p<0.001; ****p<0.0001.

Balb/C mice = test: Dextran sodium sulfate (DSS)-induced ulcerative colitis
Experimental: To investigate the anti-inflammatory activity of CpdX and CpdX-D3 on a Th17 ulcerative colitis, Balb/C mice were treated with 3% DSS in drinking water for 13 days, with or without an intraperitoneal administration of either Dex, CpdX, CpdX(eA), CpdX(eB), CpdX-D3, CpdX-D3(eA) or CpdX-D3(eB) (1 mg/kg of body weight) on D11, D12 and D13.
At D14, RNA transcripts were extracted from mouse colons. IL-1β, IL-6, IL-17a, IL-17f, TSLP and MMP13 transcripts were analyzed by q-RT-PCR. Colon samples were also harvested for histological analyses (with H&E staining).

B6 male mice [2] = test: Organ weights (thymus, spleen, adrenal gland, kidney) after three-month treatment; conditions: s.c. 1 mg/kg daily, three months
Experimental: as §1, with “to” for “to either”, “of either” for “of”, “vehicle). Following these treatments, four organs (thymus, spleen, adrenal gland and kidney) were harvested and weighted.” for “NaCl 0.9%).”

B6 male mice [3] = test: Insulin level, insulin tolerance test and liver insulin signalling after three-month treatment
Experimental: B6 male mice (8-week-old) were subjected daily for three months to a subcutaneous injection of either vehicle (NaCl 0.9%), Dex, CpdX, CpdX(eA), CpdX(eB), CpdX-D3, CpdX-D3(eA) or CpdX-D3(eB) (1 mg/kg body weight, diluted in vehicle). After three months, the blood was collected at 10 a.m. by retro-orbital puncture in lithium-heparin coated vials, and the plasmatic level of insulin was determined.
For the intraperitoneal insulin tolerance test (IPITT), mice were fasted for 6 hours before test. The blood glucose concentration was measured both before (T0) and during a one-hour period after insulin i.p. injection (0.75 U/kg body weight).
Following this three-month treatment, liver samples were harvested and lysed in the RIPA buffer (20 mM Tris pH 8, 150 mM NaCl, 10% glycerol, 1% NP-40 and 2 mM EDTA). Antibodies from Cell Signaling were used to assess by Western-Blotting the relative level of p-IRS1 (S318), IRS-1, p-AKT (S473) and AKT.

B6 male mice [4] = test: Fatty liver after three-month treatment; conditions: three months
Experimental: B6 male mice (8-week-old) were daily subjected for three months to a subcutaneous injection of either vehicle (NaCl 0.9%), Dex, CpdX, CpdX(eA), CpdX(eB), CpdX-D3, CpdX-D3(eA) or CpdX-D3(eB) (1 mg/kg body weight, diluted in vehicle). Following this treatment, blood was collected at 10 a.m. by retro-orbital puncture in lithium-heparin coated vials. The plasmatic levels of total cholesterol and bile acids were determined.
Liver samples were harvested. […] RNA transcripts were extracted from liver samples and the transcripts of fatty acid synthase (FASN) and Stearoyl-CoA desaturase 1 (SCD1) genes were analyzed by q-RT-PCR.

Male mice (DBA-1 strain) = test: Collagen-induced arthritis (CIA)
Experimental: Mice were treated with collagen to induce a Th17 rheumatoid arthritis-like inflammation as described by Inglis et al. (2007. Arthritis Res Ther. 9(5):R113) and Geboes et al. (2009. Arthritis Rheum. 60(2):390-5).
Male mice (DBA-1 strain) were subcutaneously-injected with 100 μg collagen per mouse on D0. The hind paw thickness at the ankle level was regularly measured with a caliper. When the ankle thickness had reached around 4 mm (T0, i.e., 30 to 50 days after the collagen injection on D0), mice were daily intraperitoneally-injected for 10 days (T0 to T10) with either vehicle (NaCl 0.9%), Dex, CpdX, CpdX(eA), CpdX(eB), CpdX-D3, CpdX-D3(eA) or CpdX-D3(eB) (1 mg/kg body weight diluted in NaCl 0.9%), and the hind paw thickness at the ankle level was daily measured with a caliper. Pictures of the hind paws were taken at days T0 and T10 (before and after the treatment with either Vehicle, Dex, CpdX, CpdX(eA), CpdX(eB), CpdX-D3, CpdX-D3(eA) or CpdX-D3(eB)), in order to assess the course of swelling.
RNA transcripts were extracted from whole hind paws of collagen-untreated and collagen-treated mice at T0 and T10. IL-1β, IL-6, IL-17a, IL-17f and TNFα transcripts were analyzed by q-RT-PCR.

[5] = i.p. 1 mg/kg on D11, D12, D13, H&E histology

COc1ccc(F)cc1C(C)(C)CC(O)(CNc1ccc2c(c1)COC2=O)C(F)(F)F (racemic) [CpdX, 5-[4-(5-fluoro-2-methoxyphenyl)-2-hydroxy-4-methyl-2-(trifluoromethyl)pentylamino]-isobenzofuran-1(3H)-one]
bone formation in cortical and trabecular bones (B6 male mice [1]): did not affect
pro-inflammatory genes overexpressed in DSS-induced ulcerative colitis (IL-1β, IL-6, IL-17a, IL-17f, TSLP, MMP13) (Balb/C mice; colon, q-RT-PCR, D14): similarly repressed
colonic villus/crypt structure (Balb/C mice; [5]): almost reestablished
mucosal and submucosal cell infiltration (Balb/C mice; [5]): significantly decreased
spleen weight (B6 male mice [2]): not decreased
thymus apoptosis / thymus found (B6 male mice [2]): did not result in any significant thymus apoptosis
weight of the adrenal gland (B6 male mice [2]): increased
insulin resistance (B6 male mice [3]; three months, conclusion): does not induce
phosphorylated insulin receptor substrate 1 (p-IRS1 S318) in liver extracts (B6 male mice [3]; western-blot, 'but not' = no decrease): but not
lipid deposition in the liver (B6 male mice [4]; 5% Red oil staining of frozen sections): not observed
transcripts of fatty acid synthase (FASN) and Stearoyl-CoA desaturase 1 (SCD1) in liver (B6 male mice [4]; q-RT-PCR, 'but not' = no increase): but not
blood cholesterol and bile acids' levels (B6 male mice [4]; 'but not' = no clear increase): but not
hind paw thickness at the ankle level (Male mice (DBA-1 strain); i.p. 1 mg/kg daily for 10 days (T0 to T10)): rapid decrease
RNA transcripts of the pro-inflammatory genes expressed in the hind paws (IL-1β, IL-6, IL-17a, IL-17f, TNFα) (Male mice (DBA-1 strain); q-RT-PCR, T10, 'but not' = not repressed): similarly repressed
hind paw thickness, difference compared to the Dex treatment (Male mice (DBA-1 strain); student t test, FIG. 17 legend): not significant
